Ends that are not written are not given here.
Legend:
Assay in all cases: biochemical
Assay type in all cases: binding
[1] = target: HLA A*0201 (Homo sapiens, UniProt P04439, D140Y/D185E/D98H/E176V/E277Q/G131W/G231S/I119V/I121R/I166T/I218V/L300P/L318F/N151K/N90K/P208A/P217A/Q86G/Q94H/R138H/R169H/T345S)
[2] = target: HLA A*0202 (Homo sapiens, UniProt P04439, D140Y/D185E/D98H/E176V/E277Q/G131W/G231S/I119L/I121R/I166T/I218V/L180W/L300P/L318F/N151K/N90K/P208A/P217A/Q67R/Q86G/Q94H/R138H/R169H/T345S)
[3] = target: HLA A*6802 (Homo sapiens, UniProt P04439, A269V/D140Y/D185E/E176V/E277Q/E87N/F33Y/G231S/I121R/I166T/I218V/L180W/L300P/L318F/N151K/P208A/P217A/Q86R/R138H/R169H/S129P/T345S/V36M)
[4] = target: HLA A*0206 (Homo sapiens, UniProt P04439, D140Y/D185E/D98H/E176V/E277Q/F33Y/G131W/G231S/I119V/I121R/I166T/I218V/L300P/L318F/N151K/N90K/P208A/P217A/Q86G/Q94H/R138H/R169H/T345S)
[5] = target: HLA A*0203 (Homo sapiens, UniProt P04439, A173T/D140Y/D185E/D98H/E277Q/G131W/G231S/I119V/I121R/I166T/I218V/L180W/L300P/L318F/N151K/N90K/P208A/P217A/Q86G/Q94H/R138H/R169H/T345S)

Compound	IC50 [1] [µM]	IC50 [2] [µM]	IC50 [3] [µM]	IC50 [4] [µM]	IC50 [5] [µM]
CC(C)C[C@H](NC(=O)[C@@H](N)[C@@H](C)O)C(=O)N[C@@H](CC(N)=O)C(=O)N[C@@H](C)C(=O)N[C@@H](Cc1c[nH]c2ccccc12)C(=O)N[C@H](C(=O)N[C@@H](CCCCN)C(=O)N[C@H](C(=O)N[C@H](C(=O)O)C(C)C)C(C)C)C(C)C [TV9, reference compound]	0.701	0.179	23.9	1.96	0.108
KINAWIKGV [TV9p5]	0.536	0.433	36.8	0.224	0.01
KINAWIKVV [TV9p6]	5.12	2.95	> 10	13.4	0.056
TINAWIKGV [TV9p29]	1.06	0.706	0.269	2.25	0.015
TINAWIKVV [TV9p30]	4.23	1.83	6.22	12.6	0.112
